Columns and labels:
primary DRG neurons = test: Axon growth of primary adult DRG neurons; type: cell-based, Sprague-Dawley rat; conditions: CH02 20 μM + Torin1 1 μM, 48 h, n = 62
Experimental: (§1) Figure 3 Effect of the CH02 peptide on axon growth and neuron survival. (A) Representative images of the CH02 peptide effect on axon growth in adult primary DRG neurons. DRG neurons were obtained from adult Sprague-Dawley rats. After 12-h of culture, neurons were stimulated with CH02 or bFGF for 48 h. Axonal outgrowth was assessed by immunocytochemistry using an antibody against β-tubulin, an axonal marker. Images were acquired from random neurons by fluorescence microscopy. Scale bars = 50 μm. (B) Quantification of the longest axon length of each neuron randomly selected in three independent experiments from (A), using Image-Pro Plus 6.0 software (n = 48 for each condition; *p < 0.05, ****p < 0.0001 by one-way ANOVA with Dunnett's test; ns, not significant; mean ± SD). (C) Representative images of the CH02 effect on axon growth in ex vivo cultured adult DRG explants. The axon is shown in fluorescence (β3-tubulin) images. Scale bars = 100 μm. (D) Quantification of axon growth of DRG explants from (C) using the Neurite-J software (n=4 for each condition; *control vs. CH02; #control vs. bFGF; *p < 0.05, **p < 0.01, ***p < 0.001, #p < 0.05, ##p < 0.01 by two-way ANOVA with Dunnett's test; ns, not significant; mean ± SEM). (E) Cell cytotoxicity assay of primary DRG neurons induced by H2O2. LDH released from damaged cell membranes was detected by an LDH assay kit. The results are expressed as the mean ± SEM (**p < 0.01 by one-way ANOVA with Dunnett's test; ns, not significant, compared with the control group). (F) Representative TUNEL staining of apoptotic neurons induced by H2O2 in the control, CH02, and FGF2 groups. Scale bars = 50 μm. Apoptotic neurons were detected by a TUNEL apoptosis assay kit. TUNEL (green); NeuN, neuronal marker (red); DAPI (blue). (G) Quantification of TUNEL-positive neurons from (F) (n = 3 for each condition; **p < 0.01 by one-way ANOVA with Dunnett's test; ns, not significant, compared with the control group). DRG neurons were obtained from adult Sprague-Dawley rats. […]

DRG explants = test: Axon growth of ex vivo cultured adult DRG explants; type: cell-based, Sprague-Dawley rat; conditions: CH02 20 μM + Torin1 1 μM, 4 days, n = 4
Experimental: as §1, with “(F) Representative TUNEL staining of apoptotic neurons induced by H2O2 in the control, CH02, and FGF2 groups. Scale bars = 50 μm.” left out, “TUNEL (green); NeuN, neuronal marker (red); DAPI (blue).” left out, “group).” for “group). DRG neurons were obtained from adult Sprague-Dawley rats.”
DRG explants were harvested from adult Sprague-Dawley rats (220-250 g) and placed in a 3.5 cm dish containing 2 mL of ice-cold neurobasal medium supplemented with 1 × B27, 4 mM Glutamax and 3× penicillin/streptomycin (Pen/Strep). […] After 7 days of culture, axon growth was measured. […]

[1] = tested on: dorsal root injury (DRI) model; test: Von Frey test after dorsal root crush injury; type: in vivo, Sprague-Dawley rat; conditions: rats after C5-T1 dorsal root crush, up to 8 weeks, n = 5
Experimental: (§2) Animals were anesthetized by intraperitoneal injection of pentobarbital sodium (40 mg/kg body weight) and local injection of 0.5% lidocaine. Under sterile conditions, a skin incision between the C4 and T2 spinous processes was made using a no. 10 scalpel blade. Subsequent surgeries were performed under a stereomicroscope. The muscles attached to the lamina were separated and removed using a surgical blade and microscissors to expose the lamina. A right hemilaminectomy on the C5-T1 vertebrae was performed using a fine rongeur to expose the right C5-T1 DRGs and associated dorsal roots. After dura mater opening, a concurrent C5 -T1 dorsal root crush injury was performed using no. 7 forceps. The tines of the forceps were inserted above and below the root, halfway between the dorsal root ganglia and DREZ. […]
Animals treated with CH02 or FGF2 (n = 5 animals per group) were assessed using the following behavioral tests: […]
After an acclimation period, the animal was stimulated using a Von Frey-type 0.5 mm filament, which was placed below the center of the plantar surface of the tested paw with increasing pressure. On every test day, each foot (left front and right front) was measured 5 times at 5-min intervals, and the number of paw withdrawals was recorded.

[2] = tested on: dorsal root injury (DRI) model; test: Plantar test after dorsal root crush injury; type: in vivo, Sprague-Dawley rat; conditions: rats after C5-T1 dorsal root crush, up to 8 weeks, n = 5
Experimental: as §2, with “DREZ. Each root was crushed three times, five times each, to ensure that the dorsal roots were crushed to sever all the axons within the root completely.” for “DREZ.”
Animals treated with CH02 or FGF2 (n = 5 animals per group) were assessed using the following behavioral tests:
Animals were acclimated to the testing room for at least 60 min before baseline testing, conducted before any surgical procedure. After dorsal root crush injuries, temperature sensation was measured twice a week for 8 weeks. […] Simultaneously, the paw withdrawal latency was recorded. […]

CCC(=O)N1CCN(c2ccc(-n3c(=O)ccc4cnc5ccc(-c6cnc7ccccc7c6)cc5c43)cc2C(F)(F)F)CC1 [Torin1]
effect of mTOR inhibitor on CH02-promoted axon growth, primary neurons (primary DRG neurons): greatly reduced the effect of the CH02 peptide in promoting axon growth
effect of mTOR inhibitor on CH02-promoted axon growth, DRG explants (DRG explants): greatly reduced the effect of the CH02 peptide in promoting axon growth

FGF2
pressure sensation recovery [1]: significantly improved
thermal sensation recovery [2]: significantly improved
